Test systems include Escherichia coli ESBL 4; Escherichia coli ESBL; Candida albicans MDM8; Escherichia coli SBS 363; Micrococcus luteus A270; Escherichia coli AB94012; Staphylococcus aureus; Escherichia coli; Aureobasidium pullulans; Staphylococcus aureus MR; Acinetobacter baumannii; Escherichia coli BL21; Enterobacter cloacae.
What all share (experiment): ≥ marks a high value that may be exact or a test limit, other limits are often not marked, values filed in µg/mL are converted to µM
Test [1] deals with Escherichia coli ATCC 35218.
In test [2] the test system is Pseudomonas aeruginosa ATCC 27853.
Test [3] concerns Escherichia coli ATCC 25922.
For test [4], the system named is Escherichia coli ATCC 43827.
In test [5] the test system is Escherichia coli ATCC 11775.
In test [6] the test system is Candida tropicalis IOC 4560.
Test [7] concerns Bacillus megaterium ATCC 10778.
Test [8] has as its system Enterobacter cloacae beta-12.
Test [9] concerns Serratia marcescens ATCC 4112.
Test [10] deals with Staphylococcus epidermidis AB208187.
The subject of test [11] is Staphylococcus epidermidis AB208188.
For test [12], the system named is Pseudomonas aeruginosa ATCC 9027.
The test system of test [13] is Bacillus subtilis AB91021.
Test [14] deals with Staphylococcus aureus P1389.
Test [15] concerns Staphylococcus aureus ATCC 6538.
For test [16], the system named is Staphylococcus aureus AB208193.
For test [17], the system named is Staphylococcus aureus ATCC 25923.
Test [18] deals with Staphylococcus aureus P1381.
Test [19] has as its system Micrococcus luteus AB93113.
For test [20], the system named is Bacillus thuringiensis AB92037.
The subject of test [21] is Staphylococcus aureus P1374.
Test [22] concerns Candida parapsilosis ATCC 22019.
The subject of test [23] is Trichophyton rubrum ATCC 28189.
For test [24], the system named is Candida albicans ATCC 24433.
In test [25] the test system is Staphylococcus aureus ATCC 9144.
Test [26] relates to Candida albicans ATCC 10231.
For test [27], the system named is Corynebacterium glutamicum ATCC 13032.
In test [28] the test system is Klebsiella pneumoniae KpC+001825971.
Test [29] relates to Pseudomonas aeruginosa PA14.
Test [30] has as its system Escherichia coli KpC+001812446.
In test [31] the test system is Pseudomonas aeruginosa PAO1.
The subject of test [32] is Staphylococcus aureus ATCC 12600.
Test [33] relates to Klebsiella pneumoniae ATCC 13883.

Converted amounts (≈) assume the structure as drawn.

Results on 6 molecules are retold here after DBAASP.

`CC[C@H](C)[C@H](NC(=O)[C@H](Cc1ccc(O)cc1)NC(=O)[C@H](CCC(N)=O)NC(=O)[C@H](CC(C)C)NC(=O)[C@H](C)NC(=O)[C@H](CCCCN)NC(=O)[C@H](CCCCN)NC(=O)[C@H](CCSC)NC(=O)[C@H](CCCCN)NC(=O)[C@@H](N)CCCCN)C(=O)N[C@@H](CCCCN)C(=O)N[C@@H](CC(C)C)C(=O)N[C@@H](CC(C)C)C(=O)N[C@@H](CCCCN)C(N)=O` [KKMKKALQYIKLLK]: the MIC in test [1] was 25 µM (≈ 43.3 µg/mL); against Escherichia coli ESBL 4 it was at least 100 µM; in [2], over 100 µM; in test [3] it was 50 µM (≈ 86.6 µg/mL); with Escherichia coli ESBL, 25 µM (≈ 43.3 µg/mL); in test [4], 25 µM (≈ 43.3 µg/mL). This molecule yielded an MIC in test [5] of at least 100 µM.

As for `CC(C)C[C@H](NC(=O)CN)C(=O)NCC(=O)N[C@@H](C)C(=O)N[C@@H](CC(C)C)C(=O)N[C@@H](Cc1c[nH]c2ccccc12)C(=O)N[C@@H](CC(N)=O)C(=O)N[C@H](C(=O)N[C@@H](C)C(=O)N[C@@H](CCCCN)C(=O)N[C@@H](CO)C(=O)N[C@H](C(=O)N[C@@H](Cc1ccccc1)C(N)=O)C(C)C)C(C)C` [GLGALWNVAKSVF], the MIC in the test on Candida albicans MDM8 is 25 µM (≈ 34 µg/mL); in test [6], 25 µM (≈ 34 µg/mL); in test [2], over 50 µM; in test [7], 3.1 µM (≈ 4.22 µg/mL); in test [8], at least 50 µM; in test [9] it was 0.8 µM (≈ 1.09 µg/mL). For the same molecule, the values for the minimum inhibitory concentration (MIC) with Escherichia coli SBS 363 and against Micrococcus luteus A270 were at least 50 µM and 0.8 µM (≈ 1.09 µg/mL), respectively.

Consider `CC[C@H](C)[C@H](NC(=O)[C@H](CCCCN)NC(=O)[C@@H](NC(=O)[C@H](C)NC(=O)[C@H](CC(C)C)NC(=O)[C@H](CCCCN)NC(=O)[C@H](Cc1ccccc1)NC(=O)[C@H](CC(C)C)NC(=O)[C@H](C)NC(=O)CNC(=O)[C@H](Cc1ccccc1)NC(=O)[C@@H](N)Cc1ccccc1)[C@@H](C)O)C(=O)N[C@H](C(=O)N1CCC[C@H]1C(=O)N[C@@H](CO)C(=O)N[C@@H](CC(C)C)C(=O)N[C@@H](Cc1ccccc1)C(=O)N[C@@H](CCCN=C(N)N)C(=O)O)[C@@H](C)CC` [FFGALFKLATKIIPSLFR], for which the minimal inhibitory concentration (MIC) in test [10] was determined as 1.5 µM (≈ 3.1 µg/mL); in [11], 1.5 µM (≈ 3.1 µg/mL); in [12], 12.1 µM (≈ 25 µg/mL); in [13], 3 µM (≈ 6.21 µg/mL); in test [14], 1.5 µM (≈ 3.1 µg/mL); in test [15] it was 1.5 µM (≈ 3.1 µg/mL). In addition, the minimum inhibitory concentration (MIC) was 3 µM (≈ 6.21 µg/mL) in test [16]; 12.1 µM (≈ 25 µg/mL) in [3]; 3 µM (≈ 6.21 µg/mL) in test [17]; 3 µM (≈ 6.21 µg/mL) in test [18]; at least 48.3 µM in [19]; 1.5 µM (≈ 3.1 µg/mL) in test [20]. For the same molecule, the MIC was at least 48.3 µM with Escherichia coli AB94012 and 3 µM (≈ 6.21 µg/mL) in test [21].

As to `CC[C@H](C)[C@H](NC(=O)[C@H](CC(C)C)NC(=O)[C@H](CCC(N)=O)NC(=O)[C@H](CO)NC(=O)[C@H](CCCN=C(N)N)NC(=O)[C@@H](N)CO)C(=O)N[C@H](C(=O)N[C@@H](Cc1cnc[nH]1)C(=O)N[C@@H](CCC(N)=O)C(=O)N[C@@H](CCCN=C(N)N)C(=O)N[C@@H](CC(C)C)C(=O)N[C@@H](Cc1ccccc1)C(N)=O)C(C)C` [SRSQLIVHQRLF], the MIC against Staphylococcus aureus was over 270 µM; in test [22], at least 270 µM; in test [23] it was at least 270 µM; in [24], at least 270 µM; with Escherichia coli, over 270 µM.

Turning to `CC(C)[C@H](NC(=O)[C@H](CCCCN)NC(=O)[C@H](C)NC(=O)[C@@H](NC(=O)[C@@H](NC(=O)[C@H](CCCN=C(N)N)NC(=O)[C@H](CCCN=C(N)N)NC(=O)[C@H](Cc1c[nH]c2ccccc12)NC(=O)[C@H](Cc1c[nH]c2ccccc12)NC(=O)CN)[C@@H](C)O)C(C)C)C(=O)N[C@@H](CCCN=C(N)N)C(=O)N[C@@H](C)C(N)=O` [GWWRRTVAKVRA], the minimum inhibitory concentration (MIC) is at least 50 µM in test [25]; 25 µM (≈ 37.1 µg/mL) in test [26]; at least 50 µM against Aureobasidium pullulans; 0.8 µM (≈ 1.19 µg/mL) in test [27]; 6.3 µM (≈ 9.35 µg/mL) in test [2]; 6.3 µM (≈ 9.35 µg/mL) in test [3].

As for `CC[C@H](C)[C@H](N)C(=O)N[C@@H](CC(N)=O)C(=O)N[C@@H](CC(C)C)C(=O)N[C@@H](CCCCN)C(=O)N[C@@H](CCCCN)C(=O)N[C@@H](CC(C)C)C(=O)N[C@@H](C)C(=O)N[C@@H](C)C(=O)N[C@@H](CCCN=C(N)N)C(=O)N[C@H](C(=O)N[C@@H](CCCCN)C(=O)N[C@@H](CCCCN)C(=O)N[C@@H](CCCCN)C(=O)N[C@H](C(N)=O)[C@@H](C)CC)[C@@H](C)CC` [INLKKLAARIKKKI], the minimum inhibitory concentration (MIC) in test [28] was at least 32 µM; with Staphylococcus aureus MR it was 8 µM (≈ 13.1 µg/mL); in test [29], 4 µM (≈ 6.54 µg/mL); in test [30], 8 µM (≈ 13.1 µg/mL); in test [31] it was 4 µM (≈ 6.54 µg/mL); in [32], 4 µM (≈ 6.54 µg/mL). Moreover, the MIC in test [33] was at least 32 µM; in the test with Acinetobacter baumannii it was at least 32 µM; in test [3], 4 µM (≈ 6.54 µg/mL); in [17], 8 µM (≈ 13.1 µg/mL); in the test with Escherichia coli BL21, 2 µM (≈ 3.27 µg/mL); with Enterobacter cloacae it was at least 32 µM.
